From PubChem BioAssay (NCI) come the findings set out here.

Among the test systems are SK-MEL-2 melanoma; HT29 colon; MOLT-4 leukemia; SF-268 CNS; OVCAR-4 ovarian; HS 578T breast; IGROV1 ovarian; SNB-19 CNS; KM12 colon; HCC-2998 colon.
Assay in all cases: NCI tumour cell line growth inhibition, 48 h

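How tested: cells in 96-well plates exposed to compound for 48 hours at five concentrations. GI50 is the concentration that inhibits growth by half. TGI: concentration producing complete growth inhibition.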 A value given as a limit tells only on which side of the number the result lay.

For the molecule `C=CCc1cc(O)ccc1O`, the GI50 in the experiment with SK-MEL-2 melanoma is 85.5 µM; in the experiment on HT29 colon, 80.2 µM; in the experiment on MOLT-4 leukemia it was 5.87 µM; with SF-268 CNS it was 16.5 µM; with OVCAR-4 ovarian, 14 µM; in the experiment with HS 578T breast, 23.2 µM. Also, the GI50 is 43.4 µM with IGROV1 ovarian, greater than 100 µM with SNB-19 CNS, 13.2 µM with KM12 colon and greater than 100 µM in the experiment with HCC-2998 colon. Also, the TGI in the experiment on SK-MEL-2 melanoma is greater than 100 µM; in the experiment with HT29 colon, greater than 100 µM; in the experiment with MOLT-4 leukemia, 68.9 µM; in the experiment with SF-268 CNS, greater than 100 µM; in the experiment on OVCAR-4 ovarian, 27 µM; in the experiment with HS 578T breast, greater than 100 µM. Besides, the TGI was greater than 100 µM with IGROV1 ovarian, greater than 100 µM in the experiment with SNB-19 CNS, 65.1 µM in the experiment on KM12 colon and greater than 100 µM with HCC-2998 colon.

Turning to `N#CC(Cl)CS(=O)(=O)c1ccccc1` (stereo unspecified), the TGI was 33 µM in the experiment with SK-MEL-2 melanoma; 53.1 µM with HT29 colon; 3.62 µM in the experiment with MOLT-4 leukemia; 24.3 µM in the experiment on SF-268 CNS; 4.24 µM in the experiment on OVCAR-4 ovarian; greater than 100 µM in the experiment with HS 578T breast. Further, the TGI is 38 µM with IGROV1 ovarian, 35.1 µM in the experiment with SNB-19 CNS, 33.3 µM in the experiment with KM12 colon and 29.4 µM in the experiment with HCC-2998 colon. Moreover, the GI50 with MOLT-4 leukemia is 0.0561 µM.

Consider `O=C(Nc1nc2ccc(OC(F)(F)F)cc2s1)c1ccc(F)cc1`, for which the GI50 with SK-MEL-2 melanoma was 3.08 µM; with HT29 colon, 3.88 µM; in the experiment with MOLT-4 leukemia, 3.08 µM; in the experiment on SF-268 CNS it was 3.71 µM; in the experiment with OVCAR-4 ovarian, 2.95 µM; in the experiment with HS 578T breast, 3.12 µM. Further, the GI50 with IGROV1 ovarian was 3.89 µM; in the experiment on SNB-19 CNS, 3.74 µM; in the experiment with KM12 colon it was 2.69 µM; in the experiment on HCC-2998 colon, 3.91 µM. Further, the TGI in the experiment on SK-MEL-2 melanoma was 7.39 µM; with HT29 colon it was greater than 100 µM; in the experiment on MOLT-4 leukemia, 84.9 µM; in the experiment on SF-268 CNS it was greater than 100 µM; in the experiment on OVCAR-4 ovarian, greater than 100 µM; in the experiment on HS 578T breast, greater than 100 µM. Further, the TGI with IGROV1 ovarian, with SNB-19 CNS, in the experiment on KM12 colon and in the experiment with HCC-2998 colon was greater than 100 µM in each case.

As to `CN1CCC(=C(c2ccc(Cl)cc2)c2ccccn2)CC1`, the GI50 was greater than 100 µM with SK-MEL-2 melanoma; 78.8 µM in the experiment on HT29 colon; greater than 100 µM in the experiment on MOLT-4 leukemia; greater than 100 µM in the experiment on SF-268 CNS; greater than 100 µM in the experiment with OVCAR-4 ovarian; 44.9 µM in the experiment on HS 578T breast. The GI50 in the experiment with IGROV1 ovarian is 78.7 µM; in the experiment with SNB-19 CNS, greater than 100 µM; with KM12 colon it was greater than 100 µM; in the experiment with HCC-2998 colon it was greater than 100 µM. The TGI in the experiment with SK-MEL-2 melanoma, with HT29 colon, in the experiment with MOLT-4 leukemia, in the experiment on SF-268 CNS, with OVCAR-4 ovarian and in the experiment on HS 578T breast was greater than 100 µM in each case. For the same molecule, the TGI in the experiment on IGROV1 ovarian, in the experiment with SNB-19 CNS, in the experiment on KM12 colon and in the experiment on HCC-2998 colon was greater than 100 µM each time.

Take `Cn1cc(Nc2nccc(-c3ccc4c(c3)CN(C3COC3)CC[C@H]4NC(=O)c3cn(C(C)(C)C)nn3)n2)cn1`: the GI50 in the experiment on SK-MEL-2 melanoma was greater than 100 µM; in the experiment on HT29 colon it was 33 µM; in the experiment on MOLT-4 leukemia, 89.7 µM; in the experiment with SF-268 CNS, greater than 100 µM; in the experiment on OVCAR-4 ovarian, greater than 100 µM; with HS 578T breast, 29.7 µM. The GI50 was 32 µM with IGROV1 ovarian, greater than 100 µM with SNB-19 CNS, 72.6 µM with KM12 colon and greater than 100 µM with HCC-2998 colon. The TGI with SK-MEL-2 melanoma, with HT29 colon, in the experiment with MOLT-4 leukemia, in the experiment with SF-268 CNS, in the experiment on OVCAR-4 ovarian and in the experiment with HS 578T breast was greater than 100 µM throughout. Besides, the TGI in the experiment with IGROV1 ovarian, in the experiment on SNB-19 CNS, in the experiment on KM12 colon and with HCC-2998 colon was greater than 100 µM each time.

`COc1cc(C(=O)/C=C/c2cccnc2Nc2ccc(Cl)cc2)cc(OC)c1OC`: the GI50 with SK-MEL-2 melanoma is 2.01 µM; in the experiment with HT29 colon, 1.43 µM; in the experiment on MOLT-4 leukemia, 2.55 µM; in the experiment on SF-268 CNS it was 1.72 µM; with OVCAR-4 ovarian, 1.51 µM; in the experiment with HS 578T breast, 3.08 µM. The GI50 is 2.24 µM in the experiment with IGROV1 ovarian, 1.52 µM in the experiment on SNB-19 CNS, 1.83 µM with KM12 colon and 1.52 µM in the experiment with HCC-2998 colon. Also, the TGI in the experiment with SK-MEL-2 melanoma is 4.11 µM; in the experiment on HT29 colon, 3.25 µM; in the experiment on MOLT-4 leukemia it was 10.5 µM; with SF-268 CNS, 3.19 µM; in the experiment with OVCAR-4 ovarian, 2.98 µM; with HS 578T breast it was 59.2 µM. The TGI with IGROV1 ovarian came to 4.78 µM; in the experiment with SNB-19 CNS it was 2.88 µM; with KM12 colon, 3.55 µM; in the experiment on HCC-2998 colon, 2.89 µM.

Consider `Cc1ncnc2c1ccn2[C@@H]1C[C@H](Oc2cc(C(F)F)c(F)c3c2CNCC3)[C@@H](O)[C@H]1O`, for which the GI50 in the experiment on SK-MEL-2 melanoma, in the experiment on HT29 colon, in the experiment with MOLT-4 leukemia, in the experiment on SF-268 CNS, in the experiment with OVCAR-4 ovarian and in the experiment with HS 578T breast was greater than 100 µM throughout. Also, the GI50 with IGROV1 ovarian, in the experiment on SNB-19 CNS, in the experiment with KM12 colon and with HCC-2998 colon was greater than 100 µM in each case. Further, the TGI in the experiment on SK-MEL-2 melanoma, with HT29 colon, in the experiment on MOLT-4 leukemia, with SF-268 CNS, with OVCAR-4 ovarian and with HS 578T breast was greater than 100 µM each time. Moreover, the TGI in the experiment with IGROV1 ovarian, with SNB-19 CNS, in the experiment with KM12 colon and in the experiment with HCC-2998 colon was greater than 100 µM throughout.

Take `CCOC(=O)C(Cc1ccccc1)n1c(O)c(/C=N/c2ncc(Cc3ccc(Cl)cc3Cl)s2)sc1=S` (stereo unspecified): the GI50 in the experiment on SK-MEL-2 melanoma was 1.31 µM; in the experiment with HT29 colon, 2.24 µM; in the experiment on MOLT-4 leukemia, 3.29 µM; with SF-268 CNS, 2.42 µM; in the experiment on OVCAR-4 ovarian, 3.22 µM; in the experiment with HS 578T breast, 3.62 µM. Besides, the GI50 in the experiment with IGROV1 ovarian was 3.73 µM; in the experiment on SNB-19 CNS, 5.05 µM; in the experiment on KM12 colon, 1.84 µM; in the experiment with HCC-2998 colon, 2.54 µM. Besides, the TGI is 5.68 µM in the experiment with SK-MEL-2 melanoma; 7.7 µM with HT29 colon; greater than 100 µM in the experiment with MOLT-4 leukemia; 64.8 µM in the experiment on SF-268 CNS; greater than 100 µM in the experiment on OVCAR-4 ovarian; 41.1 µM in the experiment with HS 578T breast. The TGI with IGROV1 ovarian was 71.5 µM; with SNB-19 CNS, greater than 100 µM; in the experiment with KM12 colon it was 11.6 µM; in the experiment with HCC-2998 colon, 42.3 µM.

`Cc1ccc(/C=C(/C#N)n2nnc3cccc(F)c32)cc1`: the GI50 in the experiment with SK-MEL-2 melanoma is 0.522 µM; in the experiment with HT29 colon, 0.359 µM; in the experiment with MOLT-4 leukemia it was 0.394 µM; in the experiment on SF-268 CNS, 0.58 µM; in the experiment on OVCAR-4 ovarian, 1.01 µM; in the experiment with HS 578T breast, 0.373 µM. For the same molecule, the GI50 in the experiment with IGROV1 ovarian was 0.453 µM; with SNB-19 CNS, 0.466 µM; in the experiment on KM12 colon, 0.332 µM; with HCC-2998 colon, 1.11 µM. Moreover, the TGI in the experiment on SK-MEL-2 melanoma was 19 µM; in the experiment with HT29 colon it was 11.9 µM; in the experiment with MOLT-4 leukemia it was greater than 100 µM; in the experiment on SF-268 CNS, 12.5 µM; in the experiment with OVCAR-4 ovarian, 33.1 µM; with HS 578T breast, greater than 36.8 µM. In addition, the TGI came to 10.6 µM in the experiment on IGROV1 ovarian, 17.4 µM in the experiment with SNB-19 CNS, 5.16 µM in the experiment on KM12 colon and 5.15 µM with HCC-2998 colon.

Consider `CC(C)(Oc1cccc(N2CCC[C@@H](C(=O)N(Cc3ccc(-c4cn[nH]c4)cc3)C3CC3)C2)c1)C(=O)N1CCNCC1`, for which the GI50 is 14.3 µM in the experiment with SK-MEL-2 melanoma; 6.3 µM in the experiment on HT29 colon; 12.1 µM in the experiment with MOLT-4 leukemia; 10.7 µM in the experiment on SF-268 CNS; 11.1 µM with OVCAR-4 ovarian; 5.14 µM in the experiment on HS 578T breast. Also, the GI50 in the experiment with IGROV1 ovarian is 12.3 µM; in the experiment with SNB-19 CNS, 15.1 µM; in the experiment with KM12 colon, 14.8 µM; with HCC-2998 colon, 3.06 µM. For the same molecule, the TGI in the experiment on SK-MEL-2 melanoma came out at 28 µM; with HT29 colon, 19.7 µM; with MOLT-4 leukemia, 55.8 µM; with SF-268 CNS, 24.7 µM; with OVCAR-4 ovarian it was 25.2 µM; in the experiment on HS 578T breast, 29.4 µM. Moreover, the TGI was found to be 26.8 µM with IGROV1 ovarian, 29.7 µM in the experiment with SNB-19 CNS, 28.8 µM with KM12 colon and 10.7 µM in the experiment with HCC-2998 colon.

Turning to `CCc1nc(N)nc(N)c1-c1ccc(N2CCNCC2)c([N+](=O)[O-])c1`, the TGI in the experiment with SK-MEL-2 melanoma was greater than 90.5 µM; in the experiment on HT29 colon, greater than 100 µM; in the experiment on MOLT-4 leukemia, greater than 100 µM; in the experiment on SF-268 CNS it was greater than 37.5 µM; in the experiment on OVCAR-4 ovarian, greater than 100 µM; in the experiment on HS 578T breast, greater than 74.2 µM. Besides, the TGI was greater than 100 µM in the experiment on IGROV1 ovarian, greater than 100 µM with SNB-19 CNS, greater than 100 µM with KM12 colon and 58.8 µM in the experiment with HCC-2998 colon.
